Reference: patent publication US7507727B2, “Substituted quinobenzoxazine analogs and methods of using thereof” (Cylene Pharmaceuticals, Inc., priority 2003, dated 2009)

The molecules below were run against c-Myc template DNA (c-myc quadruplex) (assay: Quadruplex binding / stop assay (Taq polymerase arrest, capillary electrophoresis)). Settings: read-out: S DATA; Table 1D, stop assay data.

Row | IC50 [µM] | SMILES
1 | > 15 | CC(C)N1CCN(c2c(F)cc3c(=O)c(C(=O)NCCCN4CCN(C)CC4)cn4c3c2Oc2ccccc2-4)CC1 [compound 1563]
2 | > 15 | CC(C)(C)OC(=O)NC1CCN(c2c(F)cc3c(=O)c(C(=O)NCCCCNC(=N)N)cn4c3c2Oc2ccccc2-4)C1 (stereo not shown) [compound 1632]
3 | > 15 | CN1CCCC1CCNC(=O)c1cn2c3c(c(N4CCC(NC(=O)OC(C)(C)C)C4)c(F)cc3c1=O)Oc1ccccc1-2 (stereo not shown) [compound 1587]
4 | 3.2 | O=C(NCCN1CCCC1)c1cn2c3c(c(SCCc4cnccn4)c(F)cc3c1=O)Oc1cc3ccccc3cc1-2 [compound 1767]
5 | > 15 | CC(C)CC(CO)Nc1c(F)cc2c(=O)c(C(=O)NCCC3CCCN3C)cn3c2c1Oc1cc2ccccc2cc1-3 (stereo not shown) [compound 1743]
6 | > 15 | O=C(NCCN1CCCC1)c1cn2c3c(c(NCCN4CCCC4)c(F)cc3c1=O)Oc1ccccc1-2 [compound 1597]
7 | > 15 | O=C(NCCN1CCCC1)c1cn2c3c(c(NCC4CCCO4)c(F)cc3c1=O)Oc1ccc(Cl)cc1-2 (stereo not shown) [compound 1799]
8 | 9.8 | COc1ccc(CCNc2c(F)cc3c(=O)c(C(=O)NCCC4CCCN4C)cn4c3c2Oc2cc3ccccc3cc2-4)cc1OC (stereo not shown) [compound 1757]
9 | 8.6 | Cn1cccc1CN1CCN(c2c(F)cc3c(=O)c(C(=O)NCCN4CCCC4)cn4c3c2Oc2cc(Cl)ccc2-4)CC1 [compound 1830]
10 | > 15 | CN1CCCC1CCNC(=O)c1cn2c3c(c(NCc4ccoc4)c(F)cc3c1=O)Oc1cc3ccccc3cc1-2 (stereo not shown) [compound 1752]
11 | 1.75 | O=C(NCCCN1CCOCC1)c1cn2c3c(c(NCCN4CCCC4)ccc3c1=O)Oc1cc3ccccc3cc1-2 [compound 1518]
12 | > 15 | O=C(NCCN1CCOCC1)c1cn2c3c(c(NCCN4CCOCC4)ccc3c1=O)Oc1cc3ccccc3cc1-2 [compound 1551]
13 | 0.75 | CN1CCCC1CCNC(=O)c1cn2c3c(c(NCCN4CCCCC4)c(F)cc3c1=O)Oc1cc3ccccc3cc1-2 (stereo not shown) [compound 1488]
14 | 0.74 | CN1CCC[C@@H]1CCNC(=O)c1cn2c3c(c(N4CCC(c5cnccn5)C4)c(F)cc3c1=O)Oc1cc3ccccc3cc1-2 (stereo partly shown) [compound 1741]
15 | 7.2 | O=C(NCCN1CCCC1)c1cn2c3c(c(NCCN4CCOCC4)c(F)cc3c1=O)Oc1cc(Cl)ccc1-2 [compound 1814]
16 | > 15 | CN1CCCC1CCNC(=O)c1cn2c3c(c(NCc4ccccc4N4CCCCC4)c(F)cc3c1=O)Oc1cc3ccccc3cc1-2 (stereo not shown) [compound 1509]
17 | 0.75 | C[C@@H](O)CNc1c(F)cc2c(=O)c(C(=O)NCCC3CCCN3C)cn3c2c1Oc1cc2ccccc2cc1-3 (stereo partly shown) [compound 1682]
18 | > 15 | CC(C)N1CCN(c2c(F)cc3c(=O)c(C(=O)NCCN4CCOCC4)cn4c3c2Oc2ccc(Cl)cc2-4)CC1 [compound 1804]

Row | SMILES | IC50 [µM]
19 | CN1CCCC1CCNC(=O)c1cn2c3c(c(NC4CN5CCC4CC5)c(F)cc3c1=O)Oc1cc3ccccc3cc1-2 (stereo not shown) [compound 1495] | 0.75

Same assay, conditions: read-out: Stop Data c-Myc μM; concentration at which 50% of the DNA was arrested (arrested:full-length 1:1)

Row | IC50 [µM] | SMILES
20 | 0.75 | O=C(NCCN1CCOCC1)c1cn2c3cc4c(cc3oc3c(NCCN5CCCC5)c(F)cc(c1=O)c32)c(=O)c1ccccc14 [compound 424]
21 | 1.75 | CN1CCN(CCCNC(=O)c2cn3c4c(c(NCCCN5CCOCC5)c(F)c(N)c4c2=O)Oc2cc4ccccc4cc2-3)CC1 [compound 223]
22 | 1.75 | CN1CCCC1CCNc1c(F)cc2c(=O)c(C(=O)NCCN3CCOCC3)cn3c2c1Oc1c-3ccc2ccccc12 (stereo not shown) [compound 134]
23 | 0.75 | CN(C)CCCCNC(=O)c1cn2c3c(c(N4CC[C@@H](NC(=O)CCNCCN5CCOCC5)C4)c(F)cc3c1=O)Oc1cc3c(cc1-2)oc1ccccc13 [compound 405]
24 | 1.75 | CC(C)(C)OC(=O)NC1CCN(c2c(F)cc3c(=O)c(C(=O)NCc4nc5ccccc5[nH]4)cn4c3c2Oc2cc3ccccc3cc2-4)C1 (stereo not shown) [compound 184]
25 | 1.75 | CC(C)(C)OC(=O)NC1CCN(C(=O)c2cn3c4c(c(NCCCN5CCOCC5)c(F)c(N)c4c2=O)Oc2cc4ccccc4cc2-3)C1 (stereo not shown) [compound 219]
26 | 1.75 | CN1CCCC1CCNc1ccc2c(=O)c(C(=O)NCCN3CCOCC3)cn3c2c1Oc1cc2ccccc2cc1-3 (stereo not shown) [compound 271]
27 | 0.9 | CN1CCN(CCCNC(=O)c2cn3c4cc5c(=O)c6ccccc6c(=O)c5cc4oc4c(N5CCN(C)CC5)c(F)cc(c2=O)c43)CC1 [compound 352]
28 | 0.75 | CN1CCCC1CCNC(=O)c1cn2c3c(c(N4CC[C@@H](NC(=O)CCNCCCN5CCOCC5)C4)c(F)cc3c1=O)Oc1cc3c(cc1-2)oc1ccccc13 (stereo partly shown) [compound 416]
29 | 2.5 | O=C(c1cn2c3c(c(NCC4CCNCC4)c(F)cc3c1=O)Oc1cc3ccccc3cc1-2)N1CCOCC1 [compound 44]
30 | 1.75 | O=C(c1cn2c3c(c(NCCCNC4CCCCC4)c(F)cc3c1=O)Oc1cc3ccccc3cc1-2)N1CCOCC1 [compound 117]
31 | 0.9 | CN1CCN(CCCNC(=O)c2cn3c4cc5c(=O)c6ccccc6c(=O)c5cc4oc4c(F)c(F)cc(c2=O)c43)CC1 [compound 344]
32 | 1.75 | CN1CCCC1CCNC(=O)c1cn2c3c(c(NCCCN4CCOCC4)c(F)cc3c1=O)Oc1c-2ccc2ccccc12 (stereo not shown) [compound 128]
33 | 0.75 | CN1CCN(CCCNC(=O)c2cn3c4cc5c(cc4oc4c(N6CC[C@H](NC(=O)OC(C)(C)C)C6)c(F)cc(c2=O)c43)c(=O)c2ccccc25)CC1 [compound 427]
34 | 0.75 | O=C(NCCCN1CCOCC1)c1cn2c3cc4oc5cc([N+](=O)[O-])ccc5[nH]c4cc3oc3c(NCCCN4CCOCC4)c(F)cc(c1=O)c32 [compound 415]
35 | 1.75 | CC(C)CC(C)(C)CNC(=O)c1cn2c3c(c(N4CCC(NC(=O)OC(C)(C)C)C4)c(F)cc3c1=O)Oc1cc3ccccc3cc1-2 (stereo not shown) [compound 186]
36 | 1.75 | CN1CCCC1CCNC(=O)c1cn2c3c(c(N4CCC(NC(=O)OC(C)(C)C)CC4)c(F)cc3c1=O)Oc1cc3ccccc3cc1-2 (stereo not shown) [compound 262]
37 | 2.5 | CCN1CCCC1CNc1c(F)cc2c(=O)c(C(=O)N3CCOCC3)cn3c2c1Oc1cc2ccccc2cc1-3 (stereo not shown) [compound 42]
38 | 1.75 | CN(C)CCCCNC(=O)c1cn2c3c(c(NCCCN4CCOCC4)c(F)c(N)c3c1=O)Oc1cc3ccccc3cc1-2 [compound 220]
39 | 1.75 | CC(C)(C)OC(=O)NC1CCN(c2c(F)c(N)c3c(=O)c(C(=O)NCCN4CCCC4)cn4c3c2Oc2cc3ccccc3cc2-4)C1 (stereo not shown) [compound 224]
40 | 1.75 | CN1CCN(CCCNC(=O)c2cn3c4c(c(N5CCC(N)C5)c(F)c(N)c4c2=O)Oc2cc4ccccc4cc2-3)CC1 (stereo not shown) [compound 240]
41 | 1.75 | CN1CCCC1CCNC(=O)c1cn2c3c(c(NCCCNC(=O)OC(C)(C)C)c(F)cc3c1=O)Oc1cc3ccccc3cc1-2 (stereo not shown) [compound 297]
42 | 1.75 | Nc1c(F)c(NCCCN2CCOCC2)c2c3c1c(=O)c(C(=O)NCCCN1CCOCC1)cn3-c1cc3ccccc3cc1O2 [compound 218]
43 | 0.75 | CN1CCN(CCCNc2c(F)cc3c(=O)c(C(=O)O)cn4c3c2Oc2cc3ccccc3cc2-4)CC1 [compound 398]
44 | 1.75 | CN1CCCC1CCNC(=O)c1cn2c3c(c(NCCN4CCOCC4)c(F)cc3c1=O)Oc1c-2ccc2ccccc12 (stereo not shown) [compound 131]
45 | 0.75 | O=C(O)c1cn2c3cc4oc5cc([N+](=O)[O-])ccc5[nH]c4cc3oc3c(NCCN4CCCC4)c(F)cc(c1=O)c32 [compound 17]
46 | 2.5 | O=C(Nc1nnc(C(F)(F)F)s1)c1cn2c3c(c(NCCN4CCCC4)c(F)cc3c1=O)Oc1ccccc1-2 [compound 46]
